Patent US20260200882A1, “NOVEL FIVE-MEMBERED HETEROCYCLE SUBSTITUTED STYRENE DERIVATIVE, AND PREPARATION METHOD THEREFOR AND USE THEREOF” (Guangzhou Nanocrystal Biotechnology Co., Ltd., priority 2022, published 2026)

Key:
[1] = test system: LPS-induced NO production in macrophages (RAW264.7); assay: Inhibition of LPS-induced NO production in macrophages; format: cell-based, mouse; set-up: dose or concentration left out as unconfirmed; settings: LPS-induced RAW264.7, 24 h
Protocol: In this test example, the styrene derivatives prepared by embodiments 2-20 were tested for their toxicities to mouse macrophages (RAW264.7). The nitric oxide (NO) inhibition assays using lipopolysaccharide (LPS)-induced RAW264.7 cells were also performed to evaluate their anti-inflammatory activities (Test methods refer to Zhou W. et al. Biomed Pharmacother 2020, 131:110696.).
(2) Inhibition of LPS-Induced NO Production Activity in Macrophages was Tested (the Test Method Refers to Biomed Pharmacother. 2020 November; 131:110696):
Mouse macrophages (RAW264.7) were taken, inoculated into 96-well plates ([…]) at a concentration of 5×10^5/mL and cultured in a 5% CO2 incubator at 37° C. for 18 h. Then, the compound (final concentration: […]) and LPS (final concentration: 5 µg/mL) were added into a cell culture solution and cultured at 37° C. for 24 h. Then, the supernatant of the cell culture solution was taken and placed into a new 96-well plate by 50 µL per well; and then 50 µL of solution A and 50 µL of solution B of a Beyotime NO kit were added.
After culturing in the incubator at 37° C. for 10 min, the absorbance (OD value) at 540 nm was tested.

[2] = test system: Mouse macrophages (RAW264.7); assay: Toxicity to macrophages by MTT method; format: cell-based; settings: RAW264.7, MTT, 48 h culture with compound
Protocol: (1) the Toxicity to Macrophages was Tested by MTT Method:
Mouse macrophages (RAW264.7) were taken, inoculated into 96-well plates ([…]) at a concentration of 3×10^4/mL and cultured in an incubator of 5% CO2 at 37° C. for 18 h. After the cells adhered to the wall, the supernate was discarded and compounds of different concentrations were added to continue the culture for 48 h. 0.5 mg/mL of MTT was added. After continued culture for 4 h, […] of DMSO was added to each well, and then shaken on a shaker for 10 min. Absorbance (OD value) at 570 nm was measured by a microplate reader, and IC50 was calculated by Prism software.

| Structure (SMILES) | Inhibitory activity against nitric oxide production (%) [1] [%] | IC50 ([2]; Mus musculus) [µM] | IC50 [2] [µM] |
| --- | --- | --- | --- |
| CC(C)c1c(O)cc(/C=C/c2ccoc2)cc1O [No 2] | <50 | > 1 |  |
| CC(C)c1c(O)cc(/C=C/c2cncs2)cc1O [No 3] | >50 | > 1 |  |
| CC(C)c1c(O)cc(/C=C/c2cscn2)cc1O [No 4] | <50 | > 1 |  |
| Oc1cc(/C=C/c2ccsc2)cc(O)c1C1CC1 [No 5] | <50 | > 1 |  |
| Oc1cc(/C=C/c2ccoc2)cc(O)c1C1CC1 [No 6] | <50 | > 1 |  |
| Oc1cc(/C=C/c2ccsc2)cc(O)c1C1=CCCC1 [No 7] | <50 | > 1 |  |
| Oc1cc(/C=C/c2cscn2)cc(O)c1C1=CCCC1 [No 9] | <50 |  | > 1 |
| Oc1cc(/C=C/c2cncs2)cc(O)c1C1=CCCC1 [No 10] | <50 |  | > 1 |
| Oc1cc(/C=C/c2ccsc2)cc(O)c1C1CCCC1 [No 11] | <50 | > 1 |  |
| Oc1cc(/C=C/c2cscn2)cc(O)c1C1CCCC1 [No 12] | <50 | > 1 |  |
| Oc1cc(/C=C/c2ccoc2)cc(O)c1Br [No 13] | <50 | > 1 |  |
| C=C(C)c1c(O)cc(/C=C/c2cscn2)cc1O [No 16] | <50 | > 1 |  |
| C=C(C)c1c(O)cc(/C=C/c2cncs2)cc1O [No 17] | <50 | > 1 |  |
| COc1cc(/C=C/c2ccsc2)cc(O)c1C1CC1 [No 18] | >50 | > 1 |  |
| COc1cc(/C=C/c2ccsc2)cc(O)c1Br [No 19] | >50 | > 1 |  |
| COc1cc(/C=C/c2ccoc2)cc(O)c1C(C)C [No 20] | >50 |  | > 1 |
